Experimental data: US12077483B2, “Modified amine lipids” (Intellia Therapeutics, Inc., priority 2018, dated 2024)

Assays:
[1] = pKa of amine lipid by TNS fluorescence; format: physicochemical; settings: probe TNS (6-(p-toluidino)-2-naphthalenesulfonic acid sodium salt), unformulated amine lipid in ethanol, sodium phosphate buffers -9.0
Method in brief: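 pKa derived from a sigmoidal fit of normalized TNS fluorescence (321 nm excitation, 448 nm emission) versus pH. Lipid from ethanol stock diluted to about 100 μM final in 0.1 M phosphate buffers, pH 4.5–9.0.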

mouse B2M gene = assay: In vivo editing in mouse liver, LNP with Cas9 mRNA and sgRNA G650, NGS; settings: Table 3; guide G650; CD-1 female mice, 0.1 mpk i.v., liver at 6 or 7 days; Exp. 2-7
Protocol: LNPs were prepared using various amine lipids in a 4-component lipid system consisting of an ionizable lipid (e.g. an amine lipid), DSPC, cholesterol and PEG-2k-DMG. In assays for percent liver editing in mice, Cas9 mRNA and chemically modified sgRNA targeting a mouse sequence were formulated in LNPs, at either a 1:1 w/w ratio or a 1:2 w/w ratio.
The lipid components were dissolved in 100% ethanol with the lipid component molar ratios described below. The chemically modified sgRNA and Cas9 mRNA were combined and dissolved in 25 mM citrate, 100 mM NaCl, pH 5.0, resulting in a concentration of total RNA cargo of approximately 0.45 mg/mL. The LNPs were formulated with an N/P ratio of about 6, with the ratio of chemically modified sgRNA: Cas9 mRNA at either a 1:1 or 1:2 w/w ratio as described below.
CD-1 female mice, ranging from 6-10 weeks of age were used in each study. Animals were weighed and grouped according to body weight for preparing dosing solutions based on group average weight. LNPs were dosed via the lateral tail vein in a volume of 0.2 mL per animal (approximately 10 mL per kilogram body weight). The animals were periodically observed for adverse effects for at least 24 hours post dose.
For studies measuring in vivo editing in liver, CD-1 female mice were dosed at 0.1 mpk unless otherwise noted. Animals were euthanized at 6 or 7 days by exsanguinationvia cardiac puncture under isoflourane anesthesia. Liver tissue was collected from each animal for DNA extraction and analysis. Blood was collected into serum separator tubes or into tubes containing buffered sodium citrate for plasma as described herein. Cohorts of mice were measured for editing by Next-Generation Sequencing (NGS).
In brief, to quantitatively determine the efficiency of editing at the target location in the genome, genomic DNA was isolated and deep sequencing was utilized to identify the presence of insertions and deletions introduced by gene editing.
PCR primers were designed around the target site (e.g., B2M), and the genomic area of interest was amplified. Additional PCR was performed according to the manufacturer's protocols (Illumina) to add the necessary chemistry for sequencing. The amplicons were sequenced on an Illumina MiSeq instrument. The reads were aligned to the relevant reference genome (e.g., GRCm38) after eliminating those having low quality scores. The resulting files containing the reads were mapped to the reference genome (BAM files), where reads that overlapped the target region of interest were selected and the number of wild type reads versus the number of reads which contain an insertion, substitution, or deletion was calculated.
The editing percentage (e.g., the “editing efficiency” or “percent editing”) is defined as the total number of sequence reads with insertions or deletions over the total number of sequence reads, including wild type.
We assessed in vivo editing efficiency for materials delivered with formulations including various amine lipid compounds. Editing was measured using either G282 (SEQ ID No: 1) which targets the mouse TTR gene or G650 (SEQ ID No. 2) which targets the mouse B2M gene. Lipids described above were assessed for efficacy through in vivo editing experiments. LNPs were formulated at a 1:1 w/w ratio of sgRNA to Cas9 mRNA, and at an N/P ratio of about 6. Molar concentrations of lipids in the lipid component of the LNPs are expressed as mol % amine lipid/DSPC/cholesterol/PEG-2k-DMG, e.g. 50/10/38.5/1.5. The final LNPs were characterized to determine the encapsulation efficiency, polydispersity index, and average particle size according to the analytical methods provided above. Analysis of average particle size, polydispersity (PDI), total RNA content and encapsulation efficiency of RNA are shown in Table 2.

mouse TTR = assay: Serum TTR ELISA in mice after LNP delivery; format: in vivo; settings: mouse serum, relative to TSS control of same experiment
Method in brief: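 Mouse TTR in serum was quantified by ELISA (samples diluted e.g. 10,000- and/or 2,500-fold) 6–7 days after dosing CD-1 females with LNP, typically 0.1 mpk. Values are reported relative to vehicle-treated controls (%).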

[2] = LNP average particle size and polydispersity by dynamic light scattering; format: physicochemical; settings: LNP with the compound as amine lipid
Method in brief: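 LNPs were diluted in PBS to a count rate of about 200-400 kcps and measured by DLS on a Zetasizer. Size is the intensity-weighted Z-average diameter, reported with number-average diameter, and the polydispersity index describes the spread of sizes around the mean.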

[3] = RNA encapsulation efficiency of LNP (Ribogreen fluorescence assay); format: physicochemical; settings: LNP with the compound as amine lipid
Method in brief: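 LNP samples diluted in 1× TE with or without 0.2% Triton-X 100 for total or free RNA, stained ~10 min at room temperature in the dark with RiboGreen; fluorescence ex 488/em 525 nm against RNA standard curves. Encapsulation efficiency = (Total RNA−Free RNA)/Total RNA.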

[4] = Expt. 2, composition ratio (mol %) 50/9/39.5/3 for Cmpnd 49, 50/9/39.5/1.5 for the others
[5] = Expt. 1, composition ratio (mol %) 50/9/38/3 for Cmpnd 49, 50/10/38.5/1.5 for the others

| SMILES | pKa [1] | Editing Mean % Indel (mouse B2M gene) [%] | further results |
| --- | --- | --- | --- |
| CCCCCC/C=C\COC(=O)CCCCCCCC(=O)OCC(COC(=O)CCCCCCCC(=O)OC/C=C\CCCCCC)OC(=O)CCC(CCCCCCCCCCCC)OC(=O)NCC1CCCN1C (stereo not drawn) [Compound 24, O′1,O1-(2-((4-((((1-methylpyrrolidin-2-yl)methyl)carbamoyl)oxy)hexadecanoyl)oxy)propane-1,3-diyl)9,9′-di((Z)-non-2-en-1-yl) di(nonanedioate)] | 6.1 | 6.8 |  |
| CCCCC/C=C\C/C=C\CCCCCCCC(=O)OCC(COC(=O)CCCCCCC/C=C\C/C=C\CCCCC)OC(=O)CCC(CCCCCCCCCCCC)OC(=O)OC1CCN(CC)CC1 (stereo not drawn) [Compound 6, 2-((4-((((1-ethylpiperidin-4-yl)oxy)carbonyl)oxy)hexadecanoyl)oxy)propane-1,3-diyl (9Z,9′Z,12Z,12′Z)-bis(octadeca-9,12-dienoate)] | 5.37 | 0.4 |  |
| CCCCC/C=C\C/C=C\CCCCCCCC(=O)OCC(COC(=O)CCCCCCC/C=C\C/C=C\CCCCC)OC(=O)CCC(CCCCCCCCCCCCCCCC)OC(=O)NCC1CCCN1C (stereo not drawn) [Compound 21, 2-((4-((((1-methylpyrrolidin-2-yl)methyl)carbamoyl)oxy)icosanoyl)oxy)propane-1,3-diyl (9Z,9′Z,12Z,12′Z)-bis(octadeca-9,12-dienoate)] | 6.12 | 12.1 |  |
| CCCCC/C=C\C/C=C\CCCCCCCC(=O)OCC(COC(=O)CCCCCCC/C=C\C/C=C\CCCCC)OC(=O)CCCC(CCCCCCCCCCCC)OC(=O)NCC1CCCN1C (stereo not drawn) [Compound 29, 2-((5-((((1-methylpyrrolidin-2-yl)methyl)carbamoyl)oxy)heptadecanoyl)oxy) propane-1,3-diyl (9Z,9′Z,12Z,12′Z)-bis(octadeca-9,12-dienoate)] | 6.05 | 3.6 |  |
| CCCCC/C=C\C/C=C\CCCCCCCC(=O)OCC(COC(=O)CCCCCCC/C=C\C/C=C\CCCCC)OC(=O)CCC(CCCCCCCCCCCC)OC(=O)CCCN(CC)CC (stereo not drawn) [Compound 11, 2-((4-((4-(diethylamino)butanoyl)oxy)hexadecanoyl)oxy)propane-1,3-diyl (9Z,9′Z,12Z,12′Z)-bis(octadeca-9,12-dienoate)] | 5.6 | 9.2 |  |
| CCCCC/C=C\C/C=C\CCCCCCCC(=O)OCC(COC(=O)CCCCCCC/C=C\C/C=C\CCCCC)OC(=O)CCC(CCCCCCCCCCCCCCCC)OC(=O)OCCCN1CCCC1 (stereo not drawn) [Compound 19, 2-((4-(((3-(pyrrolidin-1-yl)propoxy)carbonyl)oxy)icosanoyl)oxy)propane-1,3-diyl (9Z,9′Z,12Z,12′Z)-bis(octadeca-9,12-dienoate)] | 5.99 | 13.0 |  |
| CCCCC/C=C\C/C=C\CCCCCCCC(=O)OCC(COC(=O)CCCCCCC/C=C\C/C=C\CCCCC)OC(=O)CCC(CCCC)OC(=O)OCCCN1CCCC1 (stereo not drawn) [Compound 68, 2-((4-(((3-(pyrrolidin-1-yl)propoxy)carbonyl)oxy)octanoyl)oxy)propane-1,3-diyl (9Z,9′Z,12Z,12′Z)-bis(octadeca-9,12-dienoate)] | 6.32 |  | Serum TTR % TSS (mouse TTR; dose 0.03 mpk): 68.58 % TSS; Num Ave Size (nm) [2, 4]: 100.4 nm; PDI [2, 4]: 0.051; Z-Ave Size (nm) [2, 4]: 122.30 nm; Encapsulation (%) [3, 4]: 99% |
| CCCCC/C=C\C/C=C\CCCCCCCC(=O)OCC(COC(=O)CCCCCCC/C=C\C/C=C\CCCCC)COC(=O)CCCC(CCCCCCCC)OC(=O)NCCN(C)CC (stereo not drawn) [Compound 55, 2-(13-methyl-7-octyl-3,9-dioxo-2,8-dioxa-10,13-diazapentadecyl)propane-1,3-diyl (9Z,9′Z,12Z,12′Z)-bis(octadeca-9,12-dienoate)] | 6.43 |  | Serum TTR % TSS (mouse TTR; dose 0.1 mpk): 72.79 % TSS; Num Ave Size (nm) [2, 5]: 99.29 nm; PDI [2, 5]: 0.02; Z-Ave Size (nm) [2, 5]: 117.30 nm; Encapsulation (%) [3, 5]: 97% |

The next lines start with results.

| pKa [1] | SMILES | Editing Mean % Indel (mouse B2M gene) [%] | further results |
| --- | --- | --- | --- |
| 5.95 | CCCCC/C=C\C/C=C\CCCCCCCC(=O)OCC(COC(=O)CCCCCCC/C=C\C/C=C\CCCCC)OC(=O)CCC(CCCCCCCC)OC(=O)OCCCN(C)CC (stereo not drawn) [Compound 33, 2-((4-(((3-(ethyl(methyl)amino)propoxy)carbonyl)oxy)dodecanoyl)oxy)propane-1,3-diyl (9Z,9′Z, 12Z, 12′Z)-bis(octadeca-9,12-dienoate)] | 20.0 |  |
| 6.28 | CCCCC/C=C\C/C=C\CCCCCCCC(=O)OCC(COC(=O)CCCCCCC/C=C\C/C=C\CCCCC)OC(=O)CCC(CCCCCCCC)OC(=O)OCCCN(C)C (stereo not drawn) [Compound 31, 2-((4-(((3-(dimethylamino)propoxy)carbonyl)oxy)dodecanoyl)oxy)propane-1,3-diyl (9Z,9′Z,12Z,12′Z)-bis(octadeca-9,12-dienoate)] | 15.6 |  |
| 6.12 | CCCCC/C=C\C/C=C\CCCCCCCC(=O)OCC(COC(=O)CCCCCCC/C=C\C/C=C\CCCCC)OC(=O)CCCC(CCCCCCCCCCCC)OC(=O)OCCCN(C)C (stereo not drawn) [Compound 25, 2-((5-(((3-(dimethylamino)propoxy)carbonyl)oxy)heptadecanoyl)oxy)propane-1,3-diyl (9Z,9′Z,12Z,12′Z)-bis(octadeca-9,12-dienoate)] | 10.2 |  |
| 5.82 | CCCCC/C=C\C/C=C\CCCCCCCC(=O)OCC(COC(=O)CCCCCCC/C=C\C/C=C\CCCCC)OC(=O)CCCC(CCCCCCCCCCCC)OC(=O)OCCCN(C)CC (stereo not drawn) [Compound 26, 2-((5-(((3-(ethyl(methyl)amino)propoxy)carbonyl)oxy)heptadecanoyl)oxy) propane-1,3-diyl (9Z,9′Z,12Z,12′Z)-bis(octadeca-9,12-dienoate)] | 5.2 |  |
| 6.82 | CCCCC/C=C\C/C=C\CCCCCCCC(=O)OCC(COC(=O)CCCCCCC/C=C\C/C=C\CCCCC)OC(=O)CCC(CCCCCCCCCCCC)OC(=O)NCCN(C)C (stereo not drawn) [Compound 12, 2-((4-(((2-(dimethylamino)ethyl)carbamoyl)oxy)hexadecanoyl)oxy)propane-1,3-diyl (9Z,9′Z,12Z,12′Z)-bis(octadeca-9,12-dienoate)] | 5.5 |  |
| 5.97 | CCCCC/C=C\C/C=C\CCCCCCCC(=O)OCC(COC(=O)CCCCCCC/C=C\C/C=C\CCCCC)OC(=O)CCCC(CCCCCCCCCCCC)OC(=O)OCCCN1CCCC1 (stereo not drawn) [Compound 27, 2-((5-(((3-(pyrrolidin-1-yl)propoxy)carbonyl)oxy)heptadecanoyl)oxy)propane-1,3-diyl (9Z,9′Z,12Z,12′Z)-bis(octadeca-9,12-dienoate)] | 13.0 |  |
